According to patent publication US20080255236A1, “Methods and Composition Comprising 2-[(3-Chlorophenyl)Amino] Phenylacetic Acid for Alzheimer's Disease” (Glycadia, Inc., priority 2007, published 2008):
Where two headings read alike, the source gives them in different places. Blank lines part the entries; values can stand above or below the compound they belong to.

Key:
[1] = Plasma levels of 23CPPA following oral administration in rats; format: in vivo, rat; conditions: for AUC(0-t) / half-life: plasma, rat; for AUC(0-t) / Cmax / half-life: po; for AUC(0-t): read-out: AUC0-24; for Cmax: read-out: maximal concentration (Cmax)
Experimental: Concentrations of compound in rat plasma were measured at timed intervals after administration by gavage of 25 and 75 mg per kilogram of body weight of the sodium salt of 23CPPA. […] Plasma concentrations of the compound readily declined after reaching maximal concentration and the elimination half-life (T^1/2) was about 2 hours. The extent of systemic exposure of animals to 23CPPA, characterized by the area under the curve from 0 to 24 hours after administration (AUC0-24), increased with increasing dosage, was approximately dose proportional, and encompassed levels representing therapeutic ranges.

[2] = Brain and plasma levels of 23CPPA following oral administration in rats (HPLC/MS/MS); format: in vivo; conditions: rat; for concentration at 1 h: 1 hour after dose; for concentration at 4 h: 4 hours after dose; for concentration at 6 h: 6 hours after dose
Experimental: Rat hemi brains were obtained 1, 4 and 6 hours after administration by gavage of the sodium salt of 23CPPA at doses of 15 and 60 mg/kg and were mixed with two equivalents of water and homogenized. The resulting homogenate was extracted into acetonitrile containing internal standard and concentrations of the compound were analyzed by high pressure liquid chromatography/two stage mass spectrometry (HPLC/MS/MS). Plasma samples also were collected from the same rats at these time points for measurement of plasma concentrations of the compound.

diabetic rodents = conditions: chronic administration, cited from earlier work
human hepatocytes = test: Metabolic conversion after incubation with human hepatocytes (mass spectrometry); format: in vitro ADME
Experimental: After incubation of 23CPPA with human hepatocytes, samples were analyzed using mass spectrometry to establish metabolic conversion of the compound.

[3] = test system: Mammalian cell cultures expressing human Amyloid Protein Precursor (APP); test: Production of Aβ40 and Aβ42 peptides in culture supernatants, enzyme-linked immunoassay; format: cell-based; conditions: sodium salt at 10, 50 and 100 micromolar, vs DMSO control
Experimental: FIG. 1 is a chart diagram representing an exemplary embodiment of 23CPPA lowering production of amyloidogenic Aβ42 peptide. Mammalian cell cultures expressing human Amyloid Protein Precursor (APP) were treated with the sodium salt of 23CPPA at concentrations of 10, 50 and 100 micromolar. The culture supernatants were analyzed by enzyme-linked immunoassay for the Aβ40 and Aβ42 peptides. Results were compared to control values obtained from cells treated with DMSO. […] Mammalian cell cultures expressing human Amyloid Protein Precursor (APP) were treated with the sodium salt of 23CPPA at concentrations of 10, 50 and 100 micromolar. The culture supernatants were analyzed by enzyme-linked immunoassay for the Aβ40 and Aβ42 peptides. Results were compared to control values obtained from cells treated with DMSO.

COX1 = COX1 (Homo sapiens, UniProt P23219); conditions: background statement, no test described; cited from earlier work
Sequence of COX1 (P23219 24-599): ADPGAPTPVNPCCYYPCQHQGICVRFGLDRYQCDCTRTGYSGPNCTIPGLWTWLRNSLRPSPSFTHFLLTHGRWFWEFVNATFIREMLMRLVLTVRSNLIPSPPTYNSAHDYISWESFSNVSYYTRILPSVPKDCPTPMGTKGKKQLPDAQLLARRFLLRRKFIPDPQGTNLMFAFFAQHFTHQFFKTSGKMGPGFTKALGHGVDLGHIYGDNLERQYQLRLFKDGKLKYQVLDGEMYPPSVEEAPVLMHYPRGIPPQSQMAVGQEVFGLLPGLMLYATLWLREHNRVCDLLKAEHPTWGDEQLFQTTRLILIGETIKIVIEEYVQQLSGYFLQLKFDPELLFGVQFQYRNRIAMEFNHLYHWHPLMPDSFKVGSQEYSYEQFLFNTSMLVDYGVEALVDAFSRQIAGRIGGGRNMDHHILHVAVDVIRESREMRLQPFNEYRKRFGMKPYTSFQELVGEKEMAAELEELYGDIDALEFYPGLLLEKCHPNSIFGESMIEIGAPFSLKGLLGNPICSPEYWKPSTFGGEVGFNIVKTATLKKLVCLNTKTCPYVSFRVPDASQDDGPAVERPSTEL

[4] = Plasma levels of 23CPPA after oral administration to humans; format: in vivo, human; conditions: for AUC(0-t): read-out: AUC0-24
Experimental: Plasma concentrations were measured at timed intervals after oral administration of a single dose of 50 to 1000 mg of the sodium salt of 23CPPA. […] The extent of systemic exposure of subjects to 23CPPA, characterized by the area under the curve from 0 to 24 hours after administration (AUC0-24), increased with increasing dosage from 50 to 1000 mg and was approximately dose proportional. The human pharmacokinetic findings closely resemble those in rats according to the human equivalent dose as shown in Example 2.

COX2 = target: T1, COX2 (Homo sapiens, UniProt P35354); conditions: background statement, no test described; cited from earlier work
T1 sequence (P35354 18-604): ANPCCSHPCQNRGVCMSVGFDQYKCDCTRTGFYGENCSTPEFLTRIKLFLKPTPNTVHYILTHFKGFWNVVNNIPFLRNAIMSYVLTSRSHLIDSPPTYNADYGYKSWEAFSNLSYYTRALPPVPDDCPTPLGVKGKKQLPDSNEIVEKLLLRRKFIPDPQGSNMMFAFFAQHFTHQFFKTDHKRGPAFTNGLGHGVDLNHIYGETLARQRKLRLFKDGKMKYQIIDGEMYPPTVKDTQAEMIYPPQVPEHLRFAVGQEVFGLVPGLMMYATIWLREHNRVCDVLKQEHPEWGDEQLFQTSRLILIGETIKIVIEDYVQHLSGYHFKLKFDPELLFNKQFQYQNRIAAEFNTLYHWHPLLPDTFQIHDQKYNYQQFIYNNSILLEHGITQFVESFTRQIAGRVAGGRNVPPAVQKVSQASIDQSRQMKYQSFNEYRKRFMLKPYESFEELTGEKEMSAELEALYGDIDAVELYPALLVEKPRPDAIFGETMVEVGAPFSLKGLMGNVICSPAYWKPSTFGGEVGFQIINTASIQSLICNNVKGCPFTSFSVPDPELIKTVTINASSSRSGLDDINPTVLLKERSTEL

[5] = Bioavailability of 23CPPA in male rats (oral vs intravenous); format: in vivo; conditions: rat, single dose oral 30 mg/kg vs intravenous 3.0 mg/kg, plasma LC-MS-MS
Experimental: Male rats were given a single dose of 23CPPA by the oral route (30 mg/kg) or by the intravenous route (3.0 mg/kg). Timed samples of blood were collected before and after dosing, and plasma concentrations of the compound were determined with LC-MS-MS analysis.

[6] = cited from earlier work
[7] = blood, gavage 15 mg/kg sodium salt, read-out: Blood concentration
[8] = blood, gavage 60 mg/kg sodium salt, read-out: Blood concentration
[9] = brain, gavage 15 mg/kg sodium salt, read-out: Brain concentration
[10] = brain, gavage 60 mg/kg sodium salt, read-out: Brain concentration

- AUC(0-t) ([1]; gavage 25 mg/kg body wt. sodium salt): 26600 ng·h/mL
- AUC(0-t) ([1]; gavage 75 mg/kg body wt. sodium salt): 94000 ng·h/mL
- Cmax ([1]; rat plasma, gavage 25 mg/kg sodium salt): 9500 ng/mL
- Cmax ([1]; rat plasma, gavage 75 mg/kg sodium salt): 25000 ng/mL
- Time of maximal concentration (Tmax) ([1]; rat plasma, gavage 25 and 75 mg/kg sodium salt): within one hour
- half-life ([1]; 25 mg/kg, gavage 25 mg/kg body wt. sodium salt, read-out: T1/2 (converted)): 2.45 h
- half-life ([1]; 75 mg/kg, rat plasma, gavage 25 and 75 mg/kg sodium salt, read-out: elimination half-life (T1/2) (converted)): ~2 h
- half-life ([1]; 75 mg/kg, gavage 75 mg/kg body wt. sodium salt, read-out: T1/2 (converted)): 1.95 h
- concentration at 1 h [2, 7]: 27 µM
- concentration at 4 h [2, 7]: 4 µM
- concentration at 6 h [2, 7]: 3 µM
- concentration at 1 h [2, 8]: 57 µM
- concentration at 4 h [2, 8]: 28 µM
- concentration at 6 h [2, 8]: 22 µM
- concentration at 1 h [2, 9]: 76 µM
- concentration at 4 h [2, 9]: 12.4 µM
- concentration at 6 h [2, 9]: 11.9 µM
- concentration at 1 h [2, 10]: 148 µM
- concentration at 4 h [2, 10]: 61 µM
- concentration at 6 h [2, 10]: 45 µM
- Cmax ([4]; human plasma, single oral dose of 50 to 1000 mg sodium salt, read-out: maximal concentrations (Cmax)): 200 to 15600 ng/mL
- Tmax ([4]; plasma, human, all dosage groups, single oral dose 50 to 1000 mg sodium salt, read-out: mean time of maximal concentration (Tmax)): 1.74 h
- AUC(0-t) ([4]; plasma, human, single oral dose 50 mg (0.7 mg/kg body wt)): 4480 ng·h/mL
- half-life ([4]; plasma, human, single oral dose 50 mg (0.7 mg/kg body wt), read-out: T1/2 (converted)): 1.55 h
- AUC(0-t) ([4]; plasma, human, single oral dose 100 mg (1.3 mg/kg body wt)): 11000 ng·h/mL
- half-life ([4]; plasma, human, single oral dose 100 mg (1.3 mg/kg body wt), read-out: T1/2 (converted)): 1.5 h
- AUC(0-t) ([4]; plasma, human, single oral dose 250 mg (3.0 mg/kg body wt)): 27300 ng·h/mL
- half-life ([4]; plasma, human, single oral dose 250 mg (3.0 mg/kg body wt), read-out: T1/2 (converted)): 1.35 h
- AUC(0-t) ([4]; plasma, human, single oral dose 500 mg (6.0 mg/kg body wt)): 54000 ng·h/mL
- half-life ([4]; plasma, human, single oral dose 500 mg (6.0 mg/kg body wt), read-out: T1/2 (converted)): 1.5 h
- AUC(0-t) ([4]; plasma, human, single oral dose 750 mg (9.0 mg/kg body wt)): 66600 ng·h/mL
- half-life ([4]; plasma, human, single oral dose 750 mg (9.0 mg/kg body wt), read-out: T1/2 (converted)): 2.33 h
- AUC(0-t) ([4]; plasma, human, single oral dose 1000 mg (12.3 mg/kg body wt)): 100000 ng·h/mL
- half-life ([4]; plasma, human, single oral dose 1000 mg (12.3 mg/kg body wt), read-out: T1/2 (converted)): 2.38 h
- half-life ([4]; plasma, human, single oral dose 50 to 1000 mg sodium salt, read-out: mean elimination half-life (T1/2) (converted)): 1.77 h
- bioavailability [5]: 85%
Compound: O=C(O)Cc1ccccc1Nc1cccc(Cl)c1 [23CPPA, 2-[(3-chlorophenyl)amino]phenylacetic acid]
- concentration of glycated albumin (diabetic rodents; persistent hyperglycemia): lowers the concentration of glycated albumin
- structural and functional abnormalities characteristic of diabetic kidney disease (diabetic rodents): ameliorates the structural and functional abnormalities
- conversion products identified (human hepatocytes; incubation with human hepatocytes, mass spectrometry): hydroxylation and loss of water products and glucuronide conjugates
- conversion to COX-inhibitory compound (human hepatocytes; structures of conversion products from human hepatocytes): none of which had structures compatible with COX-inhibitory activity
- amount of Aβ40 [3]: without proportionate change
- amount of Aβ42 [3]: dose-dependent reduction
- total Aβ values [3]: without proportionate change
- inhibition of cyclooxygenase enzyme COX1 (COX1): is not a pharmacologic inhibitor
- inhibition of cyclooxygenase enzyme COX2 (COX2): is not a pharmacologic inhibitor

Compound: C[C@@H](C(=O)O)c1ccc(-c2ccccc2)c(F)c1 [R-flurbiprofen]
- fraction converted in vivo to S-flurbiprofen [6]: 22-30%
